Assay results reported in patent US20050153894A1, “p21 peptides” (Cyclacel Limited, priority 1999, published 2005).
Square brackets hold non-standard residues; d marks the D form. Phe(4-F) = N[C@@H](Cc1ccc(F)cc1)C(=O)O; Cit = NC(=O)NCCC[C@H](N)C(=O)O; dPsa = O-acetyl-D-phenylserine; Psa = O-acetylphenylserine; Abu = CC[C@H](N)C(=O)O

What was measured:
Type in all cases: biochemical
CDK2/cyclin A = CDK2/cyclin A (Homo sapiens, UniProt P20248); test: CDK2/cyclin A kinase assay, substrate pRb(773-928); conditions: for Relative activity Kinase Inhibition: pRb substrate, [ATP] = 100 μM
Source text: Reactions were stopped on ice, followed by filtration through p81 filterplates (Whatman Polyfiltronics, Kent, UK).

CDK4/Cyclin D1 = biological target: T1, CDK4/Cyclin D1 (Homo sapiens, UniProt P24385); test: CDK4/Cyclin D1 kinase assay, phosphorylation of GST-Rb; conditions: for Kinase Inhibition Cyclin D1/CDK4 % Inhibition / Kinase Inhibition Cyclin D1/CDK4 IC30: GST-pRb substrate, [ATP] = 100 μM
T1 construct: made in house; host or cells: CDK4: Sf9 insect cells (baculovirus)
T1 sequence (P24385 whole entry): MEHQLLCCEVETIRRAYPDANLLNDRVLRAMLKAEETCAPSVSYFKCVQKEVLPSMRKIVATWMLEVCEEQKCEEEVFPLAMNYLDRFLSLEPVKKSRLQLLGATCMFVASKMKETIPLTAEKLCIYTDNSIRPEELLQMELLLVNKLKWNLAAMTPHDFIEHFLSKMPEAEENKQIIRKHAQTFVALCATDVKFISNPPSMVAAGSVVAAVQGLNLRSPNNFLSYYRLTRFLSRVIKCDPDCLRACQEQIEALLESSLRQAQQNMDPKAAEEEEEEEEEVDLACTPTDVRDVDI
T1 sequence (P11802 whole entry partner): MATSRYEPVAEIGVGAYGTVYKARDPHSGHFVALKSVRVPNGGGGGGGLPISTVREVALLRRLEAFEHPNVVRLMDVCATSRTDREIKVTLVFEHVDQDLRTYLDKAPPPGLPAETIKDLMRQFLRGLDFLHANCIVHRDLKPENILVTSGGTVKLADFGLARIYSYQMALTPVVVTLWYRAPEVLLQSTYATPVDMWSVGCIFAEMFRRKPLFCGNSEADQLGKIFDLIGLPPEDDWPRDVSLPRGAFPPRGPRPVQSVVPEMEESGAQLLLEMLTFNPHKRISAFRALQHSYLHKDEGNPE
Experimental: (§1) The phosphorylation reaction mixture (total volume 40 μl) consisted of 50 mM HEPES pH 7.4, 20 mM MgCl2, 5 mM EGTA, 2 mM DTT, 20 mM β-glycerophosphate, 2 mM NaF, 1 mM Na3VO4, Protease Inhibitors Cocktail (Sigma, see above), BSA 0.5 mg/ml, 1 μg purified enzyme complex, 10 μl of GST-Rb-Sepharose beads, 100 μM ATP, 0.2 μCi ^32P-ATP. The reaction was carried out for 30 min at 30° C. at constant shaking. At the end of this period 100 μl of 50 mM HEPES, pH 7.4 and 1 mM ATP were added to each well and the total volume was transferred onto GFC filtered plate. The plate was washed 5 times with 200 μl of 50 mM HEPES, pH 7.4 and 1 mM ATP. To each well were added 50 μl scintillant liquid and the radioactivity of the samples was measured on Scintilation counter (Topcount, HP). The IC50 values of different peptides were calculated using GraFit software.
Peptides were synthesized as described above. Cyclin D1 was expressed in E coli BL21(DE3) using PET expression vector and purified from the inclusion bodies. After refolding Cyclin D1 was cross-linked on SulfoLink agarose support (PIERCE). CDK4-6×His was expressed in Sf9 insect cells infected with the appropriate baculovirus construct and purified by metal-affinity chromatography (Quiagen). […] CDK4/Cyclin D1 phosphorilation of Rb was determined by incorporation of radio-labeled phosphate in GST-Rb in 96-well format kinase assay. […] The reaction was carried out for 30 min at 30 C at constant shaking. The GST-Rb-Sepharose beads were washed with 50 mM HEPES and 1 mM ATP and the radioactivity was measured on Scintillation counter (Topcount, HP)

CDK2/Cyclin E = biological target: T2, CDK2/Cyclin E (Homo sapiens, UniProt P24864); test: CDK2/Cyclin E kinase assay, phosphorylation of GST-Rb; conditions: for Kinase Inhibition Cyclin E/CDK2 % Inhibition / Kinase Inhibition Cyclin E/CDK2 IC30: GST-pRb substrate, [ATP] = 100 μM
T2 construct: 6xHis; made in house; host or cells: Sf9 insect cells (baculovirus co-expression)
Experimental: as §1

[1] = relative to H-His-Ala-Lys-Arg-Arg-Leu-Ile-Phe-NH2 (SEQ ID No. 36) = 1, CDK2/cyclin A kinase assay
[2] = multiple substitutions (Example 22), relative to SEQ ID No. 36 = 1, CDK2/cyclin A kinase assay
[3] = Arg156 substitutions, relative to H-His-Ala-Lys-Arg-Arg-Leu-Ile-Phe-NH2 (=1)

| Kinase Inhibition Cyclin D1/CDK4 % Inhibition (CDK4/Cyclin D1) [%] | Kinase Inhibition Cyclin D1/CDK4 IC30 (CDK4/Cyclin D1) [µM] | Kinase Inhibition Cyclin E/CDK2 % Inhibition (CDK2/Cyclin E) [%] | Kinase Inhibition Cyclin E/CDK2 IC30 (CDK2/Cyclin E) [µM] | Substance | further results |
| --- | --- | --- | --- | --- | --- |
|  |  |  |  | 114 (H-HAKRRLI[Psa]-OH) [compound 114] | Relative activity Kinase Inhibition (CDK2/cyclin A; [1]): 22 |
|  |  |  |  | 115 (H-HAKRRLI[dPsa]-OH) [compound 115] | Relative activity Kinase Inhibition (CDK2/cyclin A; [1]): <0.1 |
|  |  |  |  | 116 (H-HSKRRLI[Psa]-OH) [compound 116] | Relative activity Kinase Inhibition (CDK2/cyclin A; [1]): <0.1 |
|  |  |  |  | 117 (H-HSKRRLI[dPsa]-OH) [compound 117] | Relative activity Kinase Inhibition (CDK2/cyclin A; [1]): <0.1 |
|  |  |  |  | 122 (H-AA[Abu]RRLI[Phe(4-F)]-NH2; SMILES CC[C@H](NC(=O)[C@H](C)NC(=O)[C@H](C)N)C(=O)N[C@@H](CCCNC(=N)N)C(=O)N[C@@H](CCCNC(=N)N)C(=O)N[C@@H](CC(C)C)C(=O)N[C@H](C(=O)N[C@@H](Cc1ccc(F)cc1)C(N)=O)[C@@H](C)CC) [compound 122] | Relative activity Kinase Inhibition (CDK2/cyclin A; [2]): 60 |
|  |  |  |  | 123 (H-AAKRRLI[Phe(4-F)]-NH2; SMILES CC[C@H](C)[C@H](NC(=O)[C@H](CC(C)C)NC(=O)[C@H](CCCNC(=N)N)NC(=O)[C@H](CCCNC(=N)N)NC(=O)[C@H](CCCCN)NC(=O)[C@H](C)NC(=O)[C@H](C)N)C(=O)N[C@@H](Cc1ccc(F)cc1)C(N)=O) [compound 123] | Relative activity Kinase Inhibition (CDK2/cyclin A; [2]): 80 |
|  |  |  |  | 124 (H-AAKR[Cit]LI[Phe(4-F)]-NH2; SMILES CC[C@H](C)[C@H](NC(=O)[C@H](CC(C)C)NC(=O)[C@H](CCCNC(N)=O)NC(=O)[C@H](CCCNC(=N)N)NC(=O)[C@H](CCCCN)NC(=O)[C@H](C)NC(=O)[C@H](C)N)C(=O)N[C@@H](Cc1ccc(F)cc1)C(N)=O) [compound 124] | Relative activity Kinase Inhibition (CDK2/cyclin A; [2]): 10 |
|  |  |  |  | 125 (H-AAKRRLA[Phe(4-F)]-NH2; SMILES CC(C)C[C@H](NC(=O)[C@H](CCCNC(=N)N)NC(=O)[C@H](CCCNC(=N)N)NC(=O)[C@H](CCCCN)NC(=O)[C@H](C)NC(=O)[C@H](C)N)C(=O)N[C@@H](C)C(=O)N[C@@H](Cc1ccc(F)cc1)C(N)=O) [compound 125] | Relative activity Kinase Inhibition (CDK2/cyclin A; [2]): 20 |
|  |  |  |  | 126 (H-AA[Abu]RSLI[Phe(4-F)]-NH2; SMILES CC[C@H](NC(=O)[C@H](C)NC(=O)[C@H](C)N)C(=O)N[C@@H](CCCNC(=N)N)C(=O)N[C@@H](CO)C(=O)N[C@@H](CC(C)C)C(=O)N[C@H](C(=O)N[C@@H](Cc1ccc(F)cc1)C(N)=O)[C@@H](C)CC) [compound 126] | Relative activity Kinase Inhibition (CDK2/cyclin A; [2]): 14 |
|  |  |  |  | 127 (H-AAKQRLI[Phe(4-F)]-NH2; SMILES CC[C@H](C)[C@H](NC(=O)[C@H](CC(C)C)NC(=O)[C@H](CCCNC(=N)N)NC(=O)[C@H](CCC(N)=O)NC(=O)[C@H](CCCCN)NC(=O)[C@H](C)NC(=O)[C@H](C)N)C(=O)N[C@@H](Cc1ccc(F)cc1)C(N)=O) [compound 127] | Relative activity Kinase Inhibition (CDK2/cyclin A; [2]): 4 |
| 72 | 22 ± 4 | 70 | 11 ± 2 | AFYHSKRRLIFS |  |
| 76 | 37 ± 6 | 85 | 5.9 ± 0.4 | DAYHSKRRLIFS |  |
| 56 | 121 ± 31 | 80 | 5.3 ± 0.6 | DFAHSKRRLIFS |  |
| 60 | 73 ± 42 | 80 | 5.1 ± 0.5 | DFYASKRRLIFS |  |
| 50 | 200 | 80 | 12.9 ± 2.4 | DFYHSARRLIFS |  |
| 10 |  | 45 | 200 | DFYHSK |  |
| 30 |  | 25 |  | DFYHSKARLIFS (H-DFYHSKARLIFS-NH2) |  |
|  |  | 50 | 200 | DFYHSKR |  |
| 30 |  | 70 | 30 ± 8 | DFYHSKRALIFS |  |
| 10 |  | 40 |  | DFYHSKRR (H-DFYHSKRR-NH2) |  |
| 30 |  | 30 |  | DFYHSKRRAIFS (H-DFYHSKRRAIFS-NH2) |  |
| 10 |  | 50 | 200 | DFYHSKRRL |  |
| 61 | 53 ± 20 | 80 | 14 ± 3 | DFYHSKRRLAFS |  |
| 20 |  | 35 |  | DFYHSKRRLI (H-DFYHSKRRLI-NH2) |  |

| Kinase Inhibition Cyclin D1/CDK4 % Inhibition (CDK4/Cyclin D1) [%] | Kinase Inhibition Cyclin D1/CDK4 IC30 (CDK4/Cyclin D1) [µM] | Kinase Inhibition Cyclin E/CDK2 % Inhibition (CDK2/Cyclin E) [%] | Kinase Inhibition Cyclin E/CDK2 IC30 (CDK2/Cyclin E) [µM] | Substance | further results |
| --- | --- | --- | --- | --- | --- |
| 35 |  | 20 |  | DFYHSKRRLIAS (H-DFYHSKRRLIAS-NH2) |  |
| 70 | 13 ± 2 | 75 | 2 ± 0.2 | DFYHSKRRLIF |  |
| 60 | 40 | 70 |  | DFYHSKRRLIFA |  |
| 20 |  | 45 | >200 | FYHSKRR |  |
| 20 |  | 48 | >200 | FYHSKRRL |  |
| 20 |  | 45 |  | FYHSKRRLI (H-FYHSKRRLI-NH2) |  |
| 70 | 19 ± 3 | 80 |  | FYHSKRRLIF |  |
| 70 | 22 ± 5 | 80 | 6.8 ± 1.0 | FYHSKRRLIFS |  |
| 70 | 41 ± 10 | 70 |  | FYHSKRRLIFSK |  |
|  |  |  |  | H-His-Ala-Lys-Arg-Aib-Leu-Ile Phe-NH2 | Relative activity Kinase Inhibition (CDK2/cyclin A; [3]): <0.1 |
|  |  |  |  | H-His-Ala-Lys-Arg-Arg-Leu-Ile-[L-Psa]-OH (H-HAKRRLI[Psa]-OH) | inhibition of CDK2/cyclin A (pRb phosphorylation), in words (CDK2/cyclin A; b370: CDK2/cyclin A inhibition and/or cyclin A binding): particularly potent |
|  |  |  |  | H-His-Ala-Lys-Arg-Sar-Leu-Ile Phe-NH2 | Relative activity Kinase Inhibition (CDK2/cyclin A; [3]): <0.1 |
|  |  | 45 | >200 | HSKRRL |  |
| 10 |  | 35 |  | HSKRRLI (H-HSKRRLI-NH2) |  |
| 65 | 32 ± 6 | 80 |  | HSKRRLIFS |  |
| 80 | 34 ± 6 | 90 |  | HSKRRLIFSKRK |  |
| 72 | >200 | 80 |  | KRRLIF |  |
| 72 | 54 | 80 | 7.7 ± 0.5 | SKRRLIF |  |
| 40 |  | 70 | 46 ± 33 | SKRRLIFSKRKP |  |
| 18 |  | 40 |  | SMTDFYHSKRRL (H-SMTDFYHSKRRL-NH2) |  |
| 72 | 15 ± 3 | 85 |  | TDFYHSKRRLIF |  |
|  |  |  |  | TDFYHSKRRLIF [p21(148-159)] | inhibition of CDK4/Cyclin D1 phosphorylation of GST-Rb, in words (CDK4/Cyclin D1): active; inhibition of CDK2/Cyclin E phosphorylation of GST-Rb, in words (CDK2/Cyclin E): active |
| 30 |  | 35 |  | TSMTDFYHSKRR (H-TSMTDFYHSKRR-NH2) |  |

| Substance | Kinase Inhibition Cyclin D1/CDK4 % Inhibition (CDK4/Cyclin D1) [%] | Kinase Inhibition Cyclin D1/CDK4 IC30 (CDK4/Cyclin D1) [µM] | Kinase Inhibition Cyclin E/CDK2 % Inhibition (CDK2/Cyclin E) [%] | Kinase Inhibition Cyclin E/CDK2 IC30 (CDK2/Cyclin E) [µM] | further results |
| --- | --- | --- | --- | --- | --- |
| MTDFYHSKRRLI (H-MTDFYHSKRRLI-NH2) | 11 |  | 35 |  |  |
